The NIST ThermoML archive (doi:10.1016/j.fluid.2013.06.013)

Assays:
[1] = refractive index (Na D-line) (dimensionless); details: 298.15 K; 101.33 kPa; Liquid; Standard Abbe refractometry
[2] = 298.15 K; 101.33 kPa; Liquid; Vibrating tube method
[3] = refractive index (Na D-line) (dimensionless); xn = mol fraction of the nth substance listed; details: 298.15 K, 101 kPa, Liquid, Standard Abbe refractometry
[4] = xn = mol fraction of the nth substance listed; details: 298.15 K, 101 kPa, Liquid, Vibrating tube method

CC(CC(C)(C)C)CP(=O)([O-])CC(C)CC(C)(C)C.CCCCCCCCCCCCCC[P+](CCCCCC)(CCCCCC)CCCCCC
Details	mass density [kg/m3]	refractive index
[1]	–	1.47125
[2]	886.43	–

CCCCCCCCCCCCCC[P+](CCCCCC)(CCCCCC)CCCCCC.N#C[N-]C#N [tetradecyl(trihexyl)phosphonium dicyanamide] + CC(=O)CC(C)=O
Details	mass density, [4] [kg/m3]	refractive index, [3]
x2 = 0.0599	899.94	1.481
x2 = 0.113	900.73	1.4808
x2 = 0.2	902.2	1.4801
x2 = 0.3143	904.54	1.4795
x2 = 0.4094	906.97	1.4785
x2 = 0.5016	909.92	1.4773
x2 = 0.5967	913.83	1.4757
x2 = 0.7002	919.76	1.4732
x2 = 0.8004	928.35	1.47
x2 = 0.9	942.61	1.463
x2 = 0.9496	953.89	1.4578

CC(=O)CC(C)=O [2,4-pentanedione] + CC(CC(C)(C)C)CP(=O)([O-])CC(C)CC(C)(C)C.CCCCCCCCCCCCCC[P+](CCCCCC)(CCCCCC)CCCCCC
Details	mass density, [4] [kg/m3]	refractive index, [3]
x1 = 0.0517	888.32	1.4714
x1 = 0.0958	889.43	1.4721
x1 = 0.2082	892.48	1.4731
x1 = 0.2986	895.05	1.4742
x1 = 0.3991	898	1.4751
x1 = 0.499	901.47	1.475
x1 = 0.6013	905.75	1.4753
x1 = 0.7004	911.47	1.474
x1 = 0.7998	919.31	1.4716
x1 = 0.9	933.94	1.4659
x1 = 0.95	946.89	1.4602

CCCCCCCC[n+]1ccn(C)c1.F[B-](F)(F)F [1-methyl-3-octylimidazolium tetrafluoroborate]
Details	mass density [kg/m3]	refractive index
[1]	–	1.43306
[2]	1101.99	–

CCCCCCn1cc[n+](C)c1.F[B-](F)(F)F [1-hexyl-3-methylimidazolium tetrafluoroborate]
Details	mass density [kg/m3]	refractive index
[1]	–	1.42844
[2]	1144.46	–

CCCCn1cc[n+](C)c1.F[P-](F)(F)(F)(F)F [1-butyl-3-methylimidazolium hexafluorophosphate]
Details	mass density [kg/m3]	refractive index
[1]	–	1.40926
[2]	1366.95	–

CCCCCCCCCCCCCC[P+](CCCCCC)(CCCCCC)CCCCCC.[Cl-] [trihexyl(tetradecyl)phosphonium chloride]
Details	mass density [kg/m3]	refractive index
[1]	–	1.48175
[2]	891.82	–

CCCCCCCCCCCCCC[P+](CCCCCC)(CCCCCC)CCCCCC.[Cl-] [trihexyl(tetradecyl)phosphonium chloride] + CC(=O)CC(C)=O
Details	mass density, [4] [kg/m3]	refractive index, [3]
x2 = 0.0586	892.92	1.4811
x2 = 0.0977	893.66	1.481
x2 = 0.1957	895.67	1.481
x2 = 0.2949	898.11	1.4805
x2 = 0.3989	901.25	1.4799
x2 = 0.4985	905.14	1.478
x2 = 0.6092	910.91	1.4759
x2 = 0.7096	918.02	1.4741
x2 = 0.8008	926.85	1.4705
x2 = 0.9036	942.76	1.4633
x2 = 0.9508	953.8	1.458

CC(=O)CC(C)=O [2,4-pentanedione]
Details	mass density [kg/m3]	refractive index
[1]	–	1.4509
[2]	971.07	–

CCCC[n+]1ccn(C)c1.O=S(=O)([N-]S(=O)(=O)C(F)(F)F)C(F)(F)F
Details	mass density [kg/m3]	refractive index
[1]	–	1.42689
[2]	1436.16	–

CCCCCCCCN(CCCCCCCC)CCCCCCCC [trioctylamine]
Details	mass density [kg/m3]	refractive index
[1]	–	1.44758
[2]	807.46	–

CCn1cc[n+](C)c1.O=S(=O)([N-]S(=O)(=O)C(F)(F)F)C(F)(F)F
Details	mass density [kg/m3]	refractive index
[1]	–	1.42293
[2]	1518.86	–

CCCCCCCCCCCCCC[P+](CCCCCC)(CCCCCC)CCCCCC.N#C[N-]C#N [tetradecyl(trihexyl)phosphonium dicyanamide]
Details	mass density [kg/m3]	refractive index
[1]	–	1.48154
[2]	899.14	–

O [water]
Details	refractive index
[1]	1.33249
